Reference: ChEMBL document CHEMBL4177678, “Design, synthesis and in vitro anti-tuberculosis activity of benzo[6,7]cyclohepta[1,2-b]pyridine-1,2,3-triazole derivatives” (Bioorg Med Chem Lett, 2017)
Values after ≈ are worked out from the molar mass of the structure shown.

How the values were obtained:
[1] = test system: Mycobacterium tuberculosis; assay: Antitubercular activity against Mycobacterium tuberculosis H37Rv ATCC 27294 after 28 days by two-fold serial dilution method; type: functional; conditions: H37Rv ATCC 27294, 672 h
HEK-293T = assay: Cytotoxicity against human HEK293T cells assessed as reduction in cell viability at 50 ug/ml after 24 hrs by MTT assay; type: cell-based

SMILES	MIC [1] [µg/mL]	Activity (HEK-293T)
Cc1cc2c(cc1C)-c1nc(C)c(Cn3cc(-c4ccccc4)nn3)cc1CCC2	25 (≈ 63.4 µM)	–
CCCCCc1ccc(-c2cn(Cc3cc4c(nc3C)-c3ccccc3CCC4)nn2)cc1	12.5 (≈ 28.6 µM)	–
Cc1nc2c(cc1Cn1cc(-c3ccccc3)nn1)CCCc1ccccc1-2	25 (≈ 68.2 µM)	–
COc1ccc2cc(-c3cn(Cc4cc5c(nc4C)-c4cc(C)c(C)cc4CCC5)nn3)ccc2c1	25 (≈ 52.7 µM)	–
NNC(=O)c1ccncc1 [ISONIAZID]	0.1 (≈ 0.729 µM)	–
Cc1nc2c(cc1Cn1cc(-c3cc4ccccc4c4ccccc34)nn1)CCCc1ccccc1-2	> 25	–
CCCCCCc1cn(Cc2cc3c(nc2C)-c2cc(C)c(C)cc2CCC3)nn1	12.5 (≈ 31 µM)	–
Cc1nc2c(cc1Cn1cc(-c3ccccn3)nn1)CCCc1ccccc1-2	12.5 (≈ 34 µM)	–
Cc1ccc(-c2cn(Cc3cc4c(nc3C)-c3cc(C)c(C)cc3CCC4)nn2)cc1	12.5 (≈ 30.6 µM)	–
CO[C@H]1/C=C/O[C@@]2(C)Oc3c(C)c(O)c4c(O)c(c(/C=N/N5CCN(C)CC5)c(O)c4c3C2=O)NC(=O)/C(C)=C\C=C\[C@H](C)[C@H](O)[C@@H](C)[C@@H](O)[C@@H](C)[C@H](OC(C)=O)[C@@H]1C [RIFAMPIN]	0.2 (≈ 0.243 µM)	–
Cc1nc2c(cc1Cn1cc(-c3cccnc3)nn1)CCCc1ccccc1-2	6.25 (≈ 17 µM)	–
COc1cccc(-c2cn(Cc3cc4c(nc3C)-c3cc(C)c(C)cc3CCC4)nn2)c1	25 (≈ 58.9 µM)	–
CC[C@@H](CO)NCCN[C@@H](CC)CO [ETHAMBUTOL]	3.13 (≈ 15.3 µM)	–
COc1cccc(-c2cn(Cc3cc4c(nc3C)-c3ccccc3CCC4)nn2)c1	> 25	–
Cc1cc2c(cc1C)-c1nc(C)c(Cn3cc(-c4ccsc4)nn3)cc1CCC2	12.5 (≈ 31.2 µM)	–
Cc1ccc(-c2cn(Cc3cc4c(nc3C)-c3ccccc3CCC4)nn2)cc1	12.5 (≈ 32.9 µM)	–
CCCCCc1ccc(-c2cn(Cc3cc4c(nc3C)-c3cc(C)c(C)cc3CCC4)nn2)cc1	> 25	–
Cc1cc2c(cc1C)-c1nc(C)c(Cn3cc(-c4cc5ccccc5c5ccccc45)nn3)cc1CCC2	1.56 (≈ 3.15 µM)	Non-Toxic
Cc1cc2c(cc1C)-c1nc(C)c(Cn3cc(-c4cccnc4)nn3)cc1CCC2	6.25 (≈ 15.8 µM)	–
CCCCCCc1cn(Cc2cc3c(nc2C)-c2ccccc2CCC3)nn1	1.56 (≈ 4.17 µM)	Non-Toxic
Cc1nc2c(cc1Cn1cc(-c3ccsc3)nn1)CCCc1ccccc1-2	12.5 (≈ 33.6 µM)	–
COc1ccc2cc(-c3cn(Cc4cc5c(nc4C)-c4ccccc4CCC5)nn3)ccc2c1	25 (≈ 56 µM)	–
Cc1cc2c(cc1C)-c1nc(C)c(Cn3cc(-c4ccccn4)nn3)cc1CCC2	25 (≈ 63.2 µM)	–
